{"source": "patent US7897591B2", "about": "“Method of treating fatty liver disease” (priority 2005, dated 2011)", "key": {"C57BL/6 mice [1]": {"test_system": "C57BL/6 mice", "assay": "Liver histology (H&E, PAS, Oil Red O) in fat-free high carbohydrate diet (HCD) mouse model of hepatic steatosis", "assay_type": "in vivo", "settings": "HCD+MAR mice, 100 mg/kg twice daily, 19 days", "method": "Experiments were performed on 5-6 week-old C57BL/6 mice (Jackson Laboratories, Bar Harbor, Me.). The animals, in groups of five, were housed in a barrier room and were acclimated to their environment for at least 72 hours prior to the initiation of each experiment. Animal protocols complied with the NIH Animal Research Advisory Committee guidelines and were approved by the Children's Hospital Boston Animal Care and Use Committee. Control animals (n=5) received normal chow and water ad libitum. All animals in the experimental groups were fed a fat-free, high carbohydrate liquid diet (HCD) ad libitum placed in one bottle per cage as previously described (3, 62). No additional sources of nutrition or hydration were provided. The HCD liquid solution contained 20% dextrose, a commercial mixture of 2% essential and nonessential amino acids (TrophAmine, B. Braun Medical, Irvine, Calif.), 2 ml trace elements (Trace Elements Injection 4, USP-Pediatric, American Regent Shirley, N.Y.), and 5 ml multivitamins (M.V.I. PediatricTM, Mayne Pharma, Paramus, N.J.). Each liter of HCD contained 30 meq sodium, 20 meq potassium chloride, 15 meq calcium, 10 meq magnesium, and 10 mM phosphate. The bottles were replaced daily with fresh HCD solution. HCD animals (n=5) received HCD only and no additional treatment for 19 days. The HCD+MAR animals (n=15) additionally received 100 mg/kg of MarimastatTM in 0.45% methylcellulose (Sigma-Aldrich Corporation, St. Louis, Mo.) vehicle twice daily via orogastric gavage. The animals were individually weighed every third day and at sacrifice. We then performed a midline laparotomy to observe, excise, and weigh the liver. Approximately one half of the liver was fixed in 10% formalin at 4° C. overnight, washed with phosphate buffered saline, and then embedded in paraffin. After cutting 5 μm sections, slides were stained at the Department of Pathology, Children's Hospital Boston with H&E to examine cellular architecture and lipid accumulation, and with periodic acid-Schiff (PAS) to identify the presence of glycogen. Another portion of the liver was collected as frozen sections, placed in embedding medium (Optimal Cutting Temperature OCT, […], Torrance, Calif.), and immersed in cold 2-methylbutane (Aldrich, Milwaukee, Wis.) on dry ice. The samples were stored at […]. Sections were stained at the Department of Pathology, Children's Hospital Boston with Oil Red O to detect fat."}, "C57BL/6 mice [2]": {"test_system": "C57BL/6 mice", "assay": "Fatty acid analysis of serum and liver lipids (triglycerides, phospholipids) in HCD mouse model", "assay_type": "in vivo", "method": "Experiments were performed on 5-6 week-old C57BL/6 mice (Jackson Laboratories, Bar Harbor, Me.). The animals, in groups of five, were housed in a barrier room and were acclimated to their environment for at least 72 hours prior to the initiation of each experiment. Animal protocols complied with the NIH Animal Research Advisory Committee guidelines and were approved by the Children's Hospital Boston Animal Care and Use Committee. Control animals (n=5) received normal chow and water ad libitum. All animals in the experimental groups were fed a fat-free, high carbohydrate liquid diet (HCD) ad libitum placed in one bottle per cage as previously described (3, 62). No additional sources of nutrition or hydration were provided. The HCD liquid solution contained 20% dextrose, a commercial mixture of 2% essential and nonessential amino acids (TrophAmine, B. Braun Medical, Irvine, Calif.), 2 ml trace elements (Trace Elements Injection 4, USP—Pediatric, American Regent Shirley, N.Y.), and 5 ml multivitamins (M.V.I. Pediatric™, Mayne Pharma, Paramus, N.J.). Each liter of HCD contained 30 meq sodium, 20 meq potassium chloride, 15 meq calcium, 10 meq magnesium, and 10 mM phosphate. The bottles were replaced daily with fresh HCD solution. HCD animals (n=5) received HCD only and no additional treatment for 19 days. The HCD+MAR animals (n=15) additionally received 100 mg/kg of Marimastat™ in 0.45% methylcellulose (Sigma-Aldrich Corporation, St. Louis, Mo.) vehicle twice daily via orogastric gavage. The animals were individually weighed every third day and at sacrifice. Fatty acid analysis was conducted as described previously (1, 2, 31). Briefly, lipids were extracted from serum and livers, and then fractionated into triglycerides and phospholipids by solid phase chromatography using an aminopropyl column. After appropriate processing, samples were injected into a Hewlett Packard 5890A gas chromatograph for analysis."}, "IL-6": {"test_system": "IL-6", "assay": "ELISA for serum IL-6 levels", "assay_type": "in vivo, mouse", "settings": "HCD+MAR vs HCD-only group, P=0.001", "method": "Control animals (n=5) received normal chow and water ad libitum. All animals in the experimental groups were fed a fat-free, high carbohydrate liquid diet (HCD) ad libitum placed in one bottle per cage as previously described (3, 62). No additional sources of nutrition or hydration were provided. The HCD liquid solution contained 20% dextrose, a commercial mixture of 2% essential and nonessential amino acids (TrophAmine, B. Braun Medical, Irvine, Calif.), 2 ml trace elements (Trace Elements Injection 4, USP—Pediatric, American Regent Shirley, N.Y.), and 5 ml multivitamins (M.V.I. Pediatric™, Mayne Pharma, Paramus, N.J.). Each liter of HCD contained 30 meq sodium, 20 meq potassium chloride, 15 meq calcium, 10 meq magnesium, and 10 mM phosphate. The bottles were replaced daily with fresh HCD solution. HCD animals (n=5) received HCD only and no additional treatment for 19 days. The HCD+MAR animals (n=15) additionally received 100 mg/kg of Marimastat™ in 0.45% methylcellulose (Sigma-Aldrich Corporation, St. Louis, Mo.) vehicle twice daily via orogastric gavage. The animals were individually weighed every third day and at sacrifice. Mouse serum IL-6 levels were determined using a commercial ELISA kit (Quantikine®, R&D systems, Inc., Minneapolis, Minn.). Optical density was read at 450 nm and analyzed with Softmax® PRO Software (Molecular Devices Corporation, Sunnyvale, Calif.)."}}}
{"smiles": "CNC(=O)[C@@H](NC(=O)[C@H](CC(C)C)[C@H](O)C(=O)NO)C(C)(C)C", "note": "[Marimastat]", "values": [{"measurement": "H&E inflammatory changes / necrosis", "setting": "C57BL/6 mice [1]", "result": "occasional focal cellular infiltrates consistent with focal necrosis"}, {"measurement": "Oil Red O staining (fat in liver)", "setting": "C57BL/6 mice [1]", "result": "minimal presence of fat"}, {"measurement": "PAS staining (glycogen storage)", "setting": "C57BL/6 mice [1]", "result": "highly positive, granular, and widespread"}, {"measurement": "steatosis on H&E sections", "setting": "C57BL/6 mice [1]", "result": "No definitive steatosis"}, {"measurement": "hepatic triglyceride level", "setting": "C57BL/6 mice [2]; HCD+MAR vs HCD, remained higher than in controls", "result": "significantly reduced"}, {"measurement": "serum triglyceride and phospholipids", "setting": "C57BL/6 mice [2]; HCD+MAR, reduced in HCD-only compared to control", "result": "normalized"}, {"measurement": "hepatic phospholipids", "setting": "C57BL/6 mice [2]; among the three groups", "result": "no significant differences"}, {"measurement": "serum IL-6 level", "setting": "IL-6", "result": "significantly higher"}]}
